In patent US20200121801A1, “DRUG DELIVERY CONJUGATES CONTAINING UNNATURAL AMINO ACIDS AND METHODS FOR USING” (priority 2012, published 2020):
“Also recorded” adds a separate entry of the source. Marks after values point to notes of the source that are not given here.

Legend:
[1] = Maximum tolerated dose (MTD); set-up: species or system Sprague-Dawley rats; conditions: rat, in vivo
Description: EXAMPLE. Maximum tolerated dose (MTD). […] Test compounds are administered by i.v., BIW, 2 wks in female Sprague-Dawley rats. Comparator compound EC0531 has a MTD of 0.33 μmol/kg, while EC1456 has a MTD of at least 0.51 μmol/kg, a […], as shown in FIG. 20. Histopathologic changes were not observed with doses of EC1456 at or below the MTD.

H23 (FR-) = assay: In vitro activity, 3H-thymidine incorporation, H23; format: cell-based, Human; conditions: evaluated from 0.1-100 nM
Description: (§1) METHOD. In vitro activity against various cancer cell lines. IC50 values are generated for various cell lines. Cells are heavily seeded in 24-well Falcon plates and allowed to form nearly confluent monolayers overnight. Thirty minutes prior to the addition of the test compound, spent medium is aspirated from all wells and replaced with fresh folate-deficient RPMI medium (FFRPMI). A subset of wells are designated to receive media containing 100 μM folic acid. The cells in the designated wells are used to determine the targeting specificity. Without being bound by theory it is believed herein that the cytotoxic activity produced by test compounds in the presence of excess folic acid, i.e. where there is competition for FR binding, corresponds to the portion of the total activity that is unrelated to FR-specific delivery. Following one rinse with 1 mL of fresh FFRPMI containing 10% heat-inactivated fetal calf serum, each well receives 1 mL of medium containing increasing concentrations of test compound (4 wells per sample) in the presence or absence of 100 μM free folic acid as indicated. […] A 450 μL aliquot of each solubilized sample is transferred to a scintillation vial containing 3 mL of Ecolume scintillation cocktail and then counted in a liquid scintillation counter. Final results are expressed as the percentage of ^3H-thymidine incorporation relative to untreated controls.

A549 (FR-) = assay: In vitro activity, 3H-thymidine incorporation, A549; format: cell-based, Human; conditions: evaluated from 0.1-100 nM
Description: as §1

IGROV1 (FR+) = assay: In vitro activity, 3H-thymidine incorporation, IGROV1; format: cell-based, Human
Description: as §1

AN3CA (FR-) = assay: In vitro activity, 3H-thymidine incorporation, AN3CA; format: cell-based, Human; conditions: evaluated from 0.1-100 nM
Description: as §1

[2] = system: KB-CR2000 (cisplatin resistant) tumors; assay: Cisplatin-resistant KB-CR2000 tumor model; format: in vivo, mice
KB tumors = assay: Inhibition of tumor growth, s.c. KB tumors in nu/nu mice; format: in vivo; set-up: key to In vivo activity (e): CR = complete response, where tumor volume, as defined herein, during the observation period was zero for all test animals in the group; conditions: for CR: 2 weeks
Description: METHOD. Inhibition of Tumor Growth in Mice. […] For tumor cell inoculation, 1×10^6 M109 cells (a syngeneic lung carcinoma) in Balb/c strain, or 1×10^6 KB cells in nu/nu strain, in 100 μL are injected in the subcutis of the dorsal medial area (right axilla).
METHOD. Toxicity as Measured by Weight Loss. The percentage weight change of the test animals is determined on selected days post-tumor inoculation (PTI), and during dosing. The results are graphed.

NC1/ADR-RES-Cl2 (FR+) = assay: In vitro activity, 3H-thymidine incorporation, NC1/ADR-RES-Cl2; format: cell-based, Human
Description: as §1

[3] = target: T1, folate receptors (FRs) on KB cells (Homo sapiens, UniProt P15328); assay: Relative affinity assay (3H-folic acid competition) on KB cells; format: binding; conditions: folic acid = 1; in 10% serum/FDRPMI
T1 construct: FR-positive KB cells are heavily seeded into 24-well cell culture plates; endogenous in cells; host or cells: KB cells
Description: METHOD. Relative Affinity Assay. The affinity for folate receptors (FRs) relative to folate is determined according to a previously described method (Westerhof, G. R., J. H. Schornagel, et al. (1995) Mol. Pharm. 48: 459-471) with slight modification. Briefly, FR-positive KB cells are heavily seeded into 24-well cell culture plates and allowed to adhere to the plastic for 18 h. Spent incubation media is replaced in designated wells with folate-free RPMI (FFRPMI) supplemented with 100 nM ^3H-folic acid in the absence and presence of increasing concentrations of test article or folic acid. Cells are incubated for 60 min at 37° C. and then rinsed 3 times with PBS, pH 7.4. Five hundred microliters of 1% SDS in PBS, pH 7.4, is added per well. Cell lysates are then collected and added to individual vials containing 5 mL of scintillation cocktail, and then counted for radioactivity. Negative control tubes contain only the ^3H-folic acid in FFRPMI (no competitor). Positive control tubes contain a final concentration of 1 mM folic acid, and CPMs measured in these samples (representing non-specific binding of label) are subtracted from all samples.

HepG2 (FR-) = assay: In vitro activity, 3H-thymidine incorporation, HepG2; format: cell-based, Human; conditions: evaluated from 0.1-100 nM
Description: as §1

KB cells (FR+) = format: cell-based, Human
Description: METHOD. Inhibition of Cellular DNA Synthesis. The compounds described herein are evaluated using an in vitro cytotoxicity assay that predicts the ability of the drug to inhibit the growth of folate receptor-positive cells, such as KB cells, RAW264.7 macrophages, and the like. It is to be understood that the choice of cell type can made on the basis of the susceptibility of those selected cells to the drug that forms the conjugate. The test compounds are comprised of folate linked to a respective chemotherapeutic drug, as prepared according to the processes described herein. The test cells are exposed to varying concentrations of folate-drug conjugate, and also in the absence or presence of at least a 100-fold excess of folic acid to assess activity as being specific to folate receptor mediation.
EXAMPLE. Conjugates of cytotoxic drugs described herein are active against KB cells. The activity is mediated by the folate receptor as indicated by competition experiments using co-administered folic acid. KB cells are exposed for up to 7 h at 37° C. to the indicated concentrations of folate-drug conjugate in the absence or presence of at least a 100-fold excess of folic acid. The cells are then rinsed once with fresh culture medium and incubated in fresh culture medium for 72 hours at 37° C. Cell viability was assessed using a ^3H-thymidine incorporation assay.
METHOD. In vitro activity against various cancer cell lines. IC50 values are generated for various cell lines. Cells are heavily seeded in 24-well Falcon plates and allowed to form nearly confluent monolayers overnight. Thirty minutes prior to the addition of the test compound, spent medium is aspirated from all wells and replaced with fresh folate-deficient RPMI medium (FFRPMI). A subset of wells are designated to receive media containing 100 μM folic acid. The cells in the designated wells are used to determine the targeting specificity. Without being bound by theory it is believed herein that the cytotoxic activity produced by test compounds in the presence of excess folic acid, i.e. where there is competition for FR binding, corresponds to the portion of the total activity that is unrelated to FR-specific delivery. Following one rinse with 1 mL of fresh FFRPMI containing 10% heat-inactivated fetal calf serum, each well receives 1 mL of medium containing increasing concentrations of test compound (4 wells per sample) in the presence or absence of 100 μM free folic acid as indicated. Treated cells are pulsed for 2 h at 37° C., rinsed 4 times with 0.5 mL of media, and then chased in 1 mL of fresh medium up to 70 h. Spent medium is aspirated from all wells and replaced with fresh medium containing 5 μCi/mL ^3H-thymidine. Following a further 2 h 37° C. incubation, cells are washed 3 times with 0.5 mL of PBS and then treated with 0.5 mL of ice-cold 5% trichloroacetic acid per well. After 15 min, the trichloroacetic acid is aspirated and the cell material solubilized by the addition of 0.5 mL of 0.25 N sodium hydroxide for 15 min. A 450 μL aliquot of each solubilized sample is transferred to a scintillation vial containing 3 mL of Ecolume scintillation cocktail and then counted in a liquid scintillation counter. Final results are expressed as the percentage of ^3H-thymidine incorporation relative to untreated controls.

MDA-MB-231 (FR+) = assay: In vitro activity, 3H-thymidine incorporation, MDA-MB-231; format: cell-based, Human
Description: as §1

MDA-MB-231 tumors = assay: TNBC tumor assay, s.c. MDA-MB-231 xenografts; format: in vivo, nu/nu mice; conditions: 2 μmol/kg i.v. TIW, 2 weeks
From the text: METHOD. TNBC Tumor Assay. Triple negative breast cancer (TNBC) is a subtype characterized by lack of gene expression for estrogen, progesterone and Her2/neu. TNBC is difficult to treat, and the resulting death rate in patients is reportedly disproportionately higher than for any other subtype of breast cancer. A TNBC xenograft model was generated in an analogous way to the KB and M109 models described herein by implanting MDA-MB-231 breast cancer cells in nu/nu mice. Dosing is initiated when the s.c. tumors have an average volume between 110-150 (generally 130) mm^3 (t0), typically 17 days post tumor inoculation (PTI).
EXAMPLE. […] Without being bound by theory, it is believed herein that the test animals were cured of the triple negative breast cancer.

T1 sequence (P15328 25-234): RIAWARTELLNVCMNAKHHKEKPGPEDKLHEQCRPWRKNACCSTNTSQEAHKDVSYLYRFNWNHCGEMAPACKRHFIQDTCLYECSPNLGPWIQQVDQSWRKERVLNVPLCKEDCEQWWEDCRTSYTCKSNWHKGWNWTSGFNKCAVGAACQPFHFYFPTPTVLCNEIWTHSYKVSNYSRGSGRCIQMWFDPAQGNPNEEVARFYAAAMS

CCCC(=O)OCN(C(=O)[C@@H](NC(=O)[C@H]1CCCCN1C)C(C)CC)C(C[C@@H](OC(C)=O)c1nc(C(=O)N[C@@H](Cc2ccc(O)cc2)C[C@H](C)C(=O)NNC(=O)OCCSSC[C@@H](NC(=O)[C@H](CCC(=O)NC[C@H](O)[C@@H](O)[C@H](O)[C@H](O)CO)NC(=O)[C@@H](CCC(=O)O)NC(=O)[C@H](CCC(=O)NC[C@H](O)[C@@H](O)[C@H](O)[C@H](O)CO)NC(=O)[C@@H](CCC(=O)O)NC(=O)[C@H](CCC(=O)NC[C@H](O)[C@@H](O)[C@H](O)[C@H](O)CO)NC(=O)CC[C@@H](NC(=O)c2ccc(NCc3cnc4nc(N)[nH]c(=O)c4n3)cc2)C(=O)O)C(=O)O)cs1)C(C)C (stereo partly drawn) [EC1456]
improvement in MTD over EC0531 [1]: 65% | MTD at 2 weeks ([1]; iv, BIW, 2 wks, female Sprague-Dawley rats): ≥ 0.51 µmol/kg | Activity (IC50) (H23 (FR-)): Inactive | Activity (IC50) (A549 (FR-)): Inactive (a) | Competable up to 100 nM (IGROV1 (FR+)): Yes | Activity (IC50) (AN3CA (FR-)): Inactive | CRs (test animals) ([2]; 2 μmol/kg i.v. TIW, 2 weeks): 5/5 | regrowth of the tumor (test animals) ([2]; 2 μmol/kg i.v. TIW, 2 weeks): 1/5 | weight loss / host animal toxicity ([2]; 2 μmol/kg i.v. TIW, 2 weeks): did not exhibit significant host animal toxicity; also recorded: did not cause any weight loss | test animals cured (no regrowth) ([2]; nearly 70 day observation period): 4/5 | Toxicity: Avg. Weight Loss (KB tumors; 0.5 μmol/kg, TIW, 3 weeks, untreated control 2.4%): <5%* | whole animal toxicity (body weight) (KB tumors; 1 μmol/kg TIW, 2 wk): did not result in any observable whole animal toxicity; also recorded: does not show any evidence of whole animal toxicity | complete response (test animals) (KB tumors; 1 μmol/kg i.v. TIW, 2 wk): 4/4 | CR (KB tumors; 1.0 μmol/kg, TIW): 60% | CR (KB tumors; 2.0 μmol/kg, TIW): 100% | activity competable with excess EC0923 (KB tumors; EC0923 50 or 100 μmol/kg co-dosed): competable | In vivo activity (e) (KB tumors; subcutaneous KB tumor in nu/nu mice): CR | Competable up to 100 nM (NC1/ADR-RES-Cl2 (FR+)): Yes | Relative Affinity (a) compared to folic acid [3]: 0.27 | Activity (IC50) (HepG2 (FR-)): Inactive | improvement in specificity compared to comparator EC0531 (KB cells (FR+)): 4 fold | In vitro specificity (fold) (d) (KB cells (FR+); IC50 competed group vs non-competed group): 944 fold | specificity for the folate receptor by folic acid competition (KB cells (FR+); IC50 competed vs non-competed group): ca. 1000 fold | Competable up to 100 nM (KB cells (FR+); KB): Yes | Competable up to 100 nM (MDA-MB-231 (FR+)): Yes | weight loss / gross whole animal toxicity (MDA-MB-231 tumors): did not cause gross whole animal toxicity; also recorded: not accompanied by significant weight loss | complete responses (test animals) (MDA-MB-231 tumors; observation nearly 135 days): 4 of 5
